Results taken from patent US9593110B2, “Neprilysin inhibitors” (Theravence Biopharma R&D IP, LLC, priority 2014, dated 2017).

Molecular target: human NEP (Homo sapiens (Human), UniProt P08473)
Experiment: In vitro enzyme inhibition assay at human NEP
Conditions: recombinant human NEP, fluorogenic peptide substrate, 37° C.; for Ki: pKi
Experimental: The inhibitory activities of compounds at human and rat neprilysin (EC 3.4.24.11; NEP) and human angiotensin converting enzyme (ACE) were determined using in vitro assays as described below.
The assays were performed in 384-well white opaque plates at 37° C. using the fluorogenic peptide substrates at a concentration of 10 μM in Assay Buffer (NEP: 50 mM HEPES, pH 7.5, 100 mM NaCl, 0.01% polyethylene glycol sorbitan monolaurate (Tween-20), 10 μM ZnSO4; ACE: 50 mM HEPES, pH 7.5, 100 mM NaCl, 0.01% Tween-20, 1 μM ZnSO4).
Test compounds were assayed over the range of concentrations from 10 μM to 20 pM. Test compounds were added to the enzymes and incubated for 30 minute at 37° C. prior to initiating the reaction by the addition of substrate.
Plates were read on a fluorometer with excitation and emission wavelengths set to 320 nm and 405 nm, respectively Inhibition constants were obtained by nonlinear regression of the data using the equation (GraphPad Software, Inc., San Diego, Calif.): v=v0/[1+(I/K′)] where v is the reaction rate, v0 is the uninhibited reaction rate, I is the inhibitor concentration and K′ is the apparent inhibition constant.

Sequence of human NEP (P08473 52-750): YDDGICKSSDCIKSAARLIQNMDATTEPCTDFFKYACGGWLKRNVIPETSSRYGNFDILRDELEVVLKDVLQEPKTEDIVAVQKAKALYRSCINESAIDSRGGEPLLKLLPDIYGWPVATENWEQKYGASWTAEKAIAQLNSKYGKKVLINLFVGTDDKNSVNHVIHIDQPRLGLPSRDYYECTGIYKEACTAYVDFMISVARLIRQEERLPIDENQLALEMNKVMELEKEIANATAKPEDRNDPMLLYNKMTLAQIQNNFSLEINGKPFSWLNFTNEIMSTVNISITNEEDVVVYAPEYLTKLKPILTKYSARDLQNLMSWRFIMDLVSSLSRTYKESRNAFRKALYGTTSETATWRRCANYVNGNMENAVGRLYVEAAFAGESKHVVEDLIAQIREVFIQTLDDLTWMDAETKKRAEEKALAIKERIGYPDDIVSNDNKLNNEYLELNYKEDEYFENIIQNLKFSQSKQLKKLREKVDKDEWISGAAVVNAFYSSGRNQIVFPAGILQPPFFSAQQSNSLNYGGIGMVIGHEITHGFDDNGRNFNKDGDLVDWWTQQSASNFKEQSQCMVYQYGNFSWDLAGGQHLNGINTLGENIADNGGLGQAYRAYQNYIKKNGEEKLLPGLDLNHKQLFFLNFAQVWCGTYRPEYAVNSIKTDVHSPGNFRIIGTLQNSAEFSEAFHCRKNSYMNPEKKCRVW

Row | Compound | Ki [nM] | pKi
1 | CC(C)c1coc(C(=O)N[C@H](Cc2ccc(-c3cc(Cl)ccc3F)cc2)C[C@@H](CCN)C(=O)O)n1 [Example 24-1, (2R,4S)-2-(2-Aminoethyl)-5-(5′-chloro-2′-fluorobiphenyl-4-yl)-4-[(4-isopropyloxazole-2-carbonyl)amino]pentanoic acid] | 3.16 to 10 | –
2 | NCC[C@H](C[C@@H](Cc1ccc(-c2cc(Cl)ccc2F)cc1)NC(=O)c1cnn[nH]1)C(=O)O [Example 24-2, (2R,4S)-2-(2-Aminoethyl)-5-(5′-chloro-2′-fluorobiphenyl-4-yl)-4-[(3H-[1,2,3]triazole-4-carbonyl)amino]pentanoic acid] | 1.26 to 3.16 | –
3 | CC(=O)N[C@H](C[C@@H](Cc1ccc(-c2ccccc2F)cc1)NC(=O)c1c[nH]nn1)C(=O)O [Example 25, (2R,4R)-2-Acetylamino-5-(2′-fluorobiphenyl-4-yl)-4-[(1H-[1,2,3]triazole-4-carbonyl)amino]pentanoic Acid] | 3.16 to 10 | –
4 | CC(=O)N[C@H](C[C@@H](Cc1ccc(-c2ccccc2)cc1)NC(=O)c1c[nH]nn1)C(=O)O [Example 26, (2R,4R)-2-Acetylamino-5-biphenyl-4-yl-4-[(1H-[1,2,3]triazole-4-carbonyl)amino]pentanoic Acid] | 3.16 to 10 | –
5 | CCC(=O)N[C@H](C[C@@H](Cc1ccc(-c2ccccc2)cc1)NC(=O)c1c[nH]nn1)C(=O)O [Example 27, (2R,4R)-5-Biphenyl-4-yl-2-propionylamino-4-[(1H-[1,2,3]triazole-4-carbonyl)amino]pentanoic Acid] | 3.16 to 10 | –
6 | CC(=O)NC[C@H](C[C@@H](Cc1ccc(-c2cc(Cl)ccc2F)cc1)NC(=O)c1c[nH]nn1)C(=O)O [Example 28, (2S,4S)-2-(Acetylaminomethyl)-5-(5′-chloro-2′-fluoro-biphenyl-4-yl)-4-[(1H-[1,2,3]triazole-4-carbonyl)amino]pentanoic Acid] | – | ≧9.0
7 | COC(=O)N[C@H](C[C@@H](Cc1ccc(-c2cc(Cl)ccc2F)cc1)NC(=O)c1c[nH]nn1)C(=O)O [Example 30-1, (2R,4R)-5-(5′-Chloro-2′-fluoro-biphenyl-4-yl)-2-methoxycarbonylamino-4-[(1H-[1,2,3]triazole-4-carbonyl)amino]pentanoic acid] | – | ≧9.0
8 | COC(=O)N[C@H](C[C@@H](Cc1ccc(-c2cc(Cl)ccc2F)cc1)NC(=O)c1cc(C(C)=O)n[nH]1)C(=O)O [Example 30-2, (2R,4R)-4-[(5-Acetyl-2H-pyrazole-3-carbonyl)-amino]-5-(5′-chloro-2′-fluoro-biphenyl-4-yl)-2-methoxycarbonylaminopentanoic acid] | – | ≧9.0
9 | COC(=O)N[C@H](C[C@@H](Cc1ccc(-c2cc(Cl)ccc2F)cc1)NC(=O)c1ncco1)C(=O)O [Example 30-3, (2R,4R)-5-(5′-Chloro-2′-fluoro-biphenyl-4-yl)-2-methoxycarbonylamino-4-[(oxazole-2-carbonyl)amino]pentanoic acid] | – | ≧9.0
10 | COC(=O)N[C@H](C[C@@H](Cc1ccc(-c2cc(Cl)ccc2F)cc1)NC(=O)c1coc(C2CC2)n1)C(=O)O [Example 30-5, (2R,4R)-5-(5′-Chloro-2′-fluorobiphenyl-4-yl)-4-[(2-cyclopropyl-oxazole-4-carbonyl)amino]-2-methoxycarbonylaminopentanoic acid] | – | ≧9.0
11 | CCOc1nc(C(=O)N[C@H](Cc2ccc(-c3cc(Cl)ccc3F)cc2)C[C@@H](NC(=O)OC)C(=O)O)co1 [Example 30-7, (2R,4R)-5-(5′-Chloro-2′-fluorobiphenyl-4-yl)-4-[(2-ethoxy-oxazole-4-carbonyl)amino]-2-methoxycarbonylaminopentanoic acid] | – | ≧9.0
12 | CCOc1oc(C(=O)N[C@H](Cc2ccc(-c3cc(Cl)ccc3F)cc2)C[C@@H](NC(=O)OC)C(=O)O)nc1C [Example 30-8, (2R,4R)-5-(5′-Chloro-2′-fluorobiphenyl-4-yl)-4-[(5-ethoxy-4-methyl-oxazole-2-carbonyl)amino]-2-methoxycarbonylaminopentanoic acid] | 1.26 to 3.16 | –
13 | COC(=O)N[C@H](C[C@@H](Cc1ccc(-c2cc(Cl)ccc2F)cc1)NC(=O)c1noc(=O)[nH]1)C(=O)O [Example 30-9, (2R,4R)-5-(5′-Chloro-2′-fluorobiphenyl-4-yl)-2-methoxycarbonylamino-4-[(5-oxo-4,5-dihydro-[1,2,4]oxadiazole-3-carbonyl)amino]pentanoic acid] | – | ≧9.0
14 | COC(=O)N[C@H](C[C@@H](Cc1ccc(-c2cc(Cl)ccc2F)cc1)NC(=O)c1c[nH]c(=O)o1)C(=O)O [Example 30-10, (2R,4R)-5-(5′-Chloro-2′-fluorobiphenyl-4-yl)-2-methoxycarbonylamino-4-[(2-oxo-2,3-dihydro-oxazole-5-carbonyl)amino]pentanoic acid] | – | ≧9.0
15 | COC(=O)N[C@H](C[C@@H](Cc1ccc(-c2cc(Cl)ccc2F)cc1)NC(=O)c1coc(=O)[nH]1)C(=O)O [Example 30-11, (2R,4R)-5-(5′-Chloro-2′-fluorobiphenyl-4-yl)-2-methoxycarbonylamino-4-[(2-oxo-2,3-dihydro-oxazole-4-carbonyl)amino]pentanoic acid] | – | ≧9.0
16 | COC(=O)N[C@H](C[C@@H](Cc1ccc(-c2ccccc2)cc1)NC(=O)c1c[nH]nn1)C(=O)O [Example 31, (2R,4R)-5-Biphenyl-4-yl-2-methoxycarbonylamino-4-[(1H-[1,2,3]triazole-4-carbonyl)amino]pentanoic Acid] | 1.26 to 3.16 | –
17 | NCC(=O)N[C@H](C[C@@H](Cc1ccc(-c2ccccc2F)cc1)NC(=O)c1c[nH]nn1)C(=O)O [Example 32, (2R,4R)-2-(2-Aminoacetylamino)-5-(2′-fluorobiphenyl-4-yl)-4-[(1H-[1,2,3]triazole-4-carbonyl)amino]pentanoic Acid] | 3.16 to 10 | –
18 | NCC(=O)N[C@H](C[C@@H](Cc1ccc(-c2cc(Cl)ccc2F)cc1)NC(=O)c1c[nH]nn1)C(=O)O [Example 33, (2R,4R)-2-(2-Aminoacetylamino)-5-(5′-chloro-2′-fluoro-biphenyl-4-yl)-4-[(1H-[1,2,3]triazole-4-carbonyl)amino]pentanoic Acid] | – | ≧9.0
19 | CC(C)c1coc(C(=O)N[C@H](Cc2ccc(-c3cc(Cl)ccc3F)cc2)C[C@@H](NC(=O)CN)C(=O)O)n1 [Example 34-1, (2R,4R)-2-(2-Aminoacetylamino)-5-(5′-chloro-2′-fluorobiphenyl-4-yl)-4-[(4-isopropyloxazole-2-carbonyl)amino]pentanoic acid] | 1.26 to 3.16 | –
20 | CC(C)c1coc(C(=O)N[C@H](Cc2ccc(-c3cc(Cl)ccc3F)cc2)C[C@@H](NC(=O)C(C)(C)N)C(=O)O)n1 [Example 35, (2R,4R)-2-(2-Amino-2-methylpropionylamino)-5-(5′-chloro-2′-fluorobiphenyl-4-yl)-4-[(4-isopropyloxazole-2-carbonyl)amino]pentanoic Acid] | 3.16 to 10 | –
21 | CC(C)c1coc(C(=O)N[C@H](Cc2ccc(-c3cc(Cl)ccc3F)cc2)C[C@@H](NC(=O)[C@H](C)N)C(=O)O)n1 [Example 36-1, (2R,4R)-2-((S)-2-Aminopropionylamino)-5-(5′-chloro-2′-fluorobiphenyl-4-yl)-4-[(4-isopropyloxazole-2-carbonyl)amino]pentanoic Acid] | 1.26 to 3.16 | –
22 | CC(C)c1coc(C(=O)N[C@H](Cc2ccc(-c3cc(Cl)ccc3F)cc2)C[C@@H](NC(=O)[C@@H](C)N)C(=O)O)n1 [Example 36-2, (2R,4R)-2-((R)-2-Aminopropionylamino)-5-(5′-chloro-2′-fluorobiphenyl-4-yl)-4-[(4-isopropy-oxazole-2-carbonyl)-amino]pentanoic Acid] | 1.26 to 3.16 | –
23 | C[C@H](N)C(=O)N[C@H](C[C@@H](Cc1ccc(-c2cc(Cl)ccc2F)cc1)NC(=O)c1cnn[nH]1)C(=O)O [Example 37-1, (2R,4R)-2-((S)-2-Aminopropionylamino)-5-(5′-chloro-2′-fluorobiphenyl-4-yl)-4-[(3H-[1,2,3]triazole-4-carbonyl)amino]pentanoic acid] | – | ≧9.0
24 | CC(C)c1coc(C(=O)N[C@H](Cc2ccc(-c3cc(Cl)ccc3F)cc2)C[C@@H](NC(=O)[C@H](N)C(C)C)C(=O)O)n1 [Example 38-1, (2R,4R)-2-((R)-2-Amino-3-methylbutyrylamino)-5-(5′-chloro-2′-fluorobiphenyl-4-yl)-4-[(4-isopropyloxazole-2-carbonyl)amino]pentanoic Acid] | 3.16 to 10 | –
25 | CC(C)c1coc(C(=O)N[C@H](Cc2ccc(-c3cc(Cl)ccc3F)cc2)C[C@@H](NC(=O)[C@@H](N)C(C)C)C(=O)O)n1 [Example 38-2, (2R,4R)-2-((S)-2-Amino-3-methylbutyrylamino)-5-(5′-chloro-2′-fluorobiphenyl-4-yl)-4-[(4-isopropyloxazole-2-carbonyl)-amino]pentanoic Acid] | 1.26 to 3.16 | –
26 | CC(C)[C@H](N)C(=O)N[C@H](C[C@@H](Cc1ccc(-c2cc(Cl)ccc2F)cc1)NC(=O)c1cnn[nH]1)C(=O)O [Example 39-1, (2R,4R)-2-((S)-2-Amino-3-methylbutyrylamino)-5-(5′-chloro-2′-fluorobiphenyl-4-yl)-4-[(3H-[1,2,3]triazole-4-carbonyl)amino]pentanoic acid] | – | ≧9.0
27 | NCCCC(=O)N[C@H](C[C@@H](Cc1ccc(-c2cc(Cl)ccc2F)cc1)NC(=O)c1cnn[nH]1)C(=O)O [Example 40, (2R,4R)-2-(4-Aminobutyrylamino)-5-(5′-chloro-2′-fluorobiphenyl-4-yl)-4-[(3H-[1,2,3]triazole-4-carbonyl)amino]pentanoic Acid] | ≤ 1 | –
28 | NCCC(=O)N[C@H](C[C@@H](Cc1ccc(-c2cc(Cl)ccc2F)cc1)NC(=O)c1cnn[nH]1)C(=O)O [Example 41, (2R,4R)-2-(3-Aminopropionylamino)-5-(5′-chloro-2′-fluoro-biphenyl-4-yl)-4-[(3H-[1,2,3]triazole-4-carbonyl)amino]pentanoic Acid] | – | ≧9.0
29 | CC(C)c1coc(C(=O)N[C@H](Cc2ccc(-c3cc(Cl)ccc3F)cc2)C[C@@H](NC(=O)[C@H](N)CO)C(=O)O)n1 [Example 42-1, (2R,4R)-2-((R)-2-Amino-3-hydroxypropionylamino)-5-(5′-chloro-2′-fluorobiphenyl-4-yl)-4-[(4-isopropyloxazole-2-carbonyl)-amino]pentanoic Acid] | 1.26 to 3.16 | –
